According to US20230165831A1, “METHOD AND COMPOSITION FOR RENDERING CANCER CELLS SUSCEPTIBLE TO TREATMENT BY TARGETED ONCOGENETIC DRIVERS” (IMPACT BIOLIFE SCIENCE, INC., priority 2021, published 2023):
Like-named read-outs stand apart in the source and are kept apart here.

Tests used:
[1] = system: pancreatic cancer line Capan-1 cells; test: CTG (CellTiter-Glo) cell viability assay, 6×6 combo matrix, 72 h, Capan-1; format: cell-based; conditions: for Relatively Cell inhibition of vehicle control(%): Capan-1
Procedure, shortened: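 Capan-1 cells were seeded at 3000 cells per well and incubated overnight at 37 °C/5% CO2. They were then treated with compounds in a 6×6 combination matrix for 72 h at 37 °C/5% CO2. Viability was read by CellTiter-Glo luminescence to assess inhibition and synergy.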

[2] = system: breast cancer line T47D cells;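 also: luminescence read-out after 72 h at 37 °C under 5% CO2, with medium-only wells as blanks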
[3] = system: prostate adenocarcinoma line LNCap cells;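 also: luminescence signal read after adding CellTiter-Glo reagent, with cells exposed to compounds for 72 h at 37 °C under 5% CO2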
[4] = system: kidney cancer line 786-O cells;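 also: luminescence read-out after adding CellTiter-Glo reagent, with cells incubated at 37 °C under 5% CO2 during compound exposure, part of a ten cell line synergy study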
[5] = system: Liver cancer line SK-HEP-1 cells;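 also: luminescent signal read after 72 h compound exposure at 37 °C under 5% CO2, with medium-only wells serving as blank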
Method: (§1) To measure the cell inhibition effect of compounds and synergy effect of test articles on ten (10) cell lines using standard CTG assay.
(§2) 7) Using complete cell medium, adjust the volume of the suspension to achieve a cell concentration.
(§3) b. A549, T47D, SK-OV-3, MKN45, SK-Hep-1, HT-29, Capan-1, 786-O and LNCaP cell line, for compounds and vehicle groups, the seeding density of cell lines is 3000 cells/80 µL per well. For blank groups, add 100 µL medium. For PBS groups, add 100 µL PBS.
(§4) 8) Incubate the U87MG, A549, T47D, SK-OV-3, MKN45, SK-Hep-1, HT-29, Capan-1, 786-O and LNCaP cells overnight at 37° C./5% CO2.
(§5) Solid compound of cis-platinum was solubilized in PBS to a stock solution of 3.333 mM.
(§6) Final volume is 100 µL per well at this point.
(§7) 5) Incubate the plates at 37° C./5% CO2 for 72 hours.
(§8) 1) Incubate the plates at room temperature and away from light for 30 minutes.
(§9) 3) Add 100 µL /well of CellTiter-Glo® Reagent in each well. Avoid light.
(§10) 4) Mix contents for 2 minutes on an orbital shaker.
(§11) 5) Incubate plate at room temperature for 10 minutes to stabilize the luminescent signal.
6) Read plates in Envision.

[6] = system: ovarian cancer line SK-OV3 cells;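 also: luminescent signal read after CellTiter-Glo addition, cells exposed to compounds for 72 h at 37 °C under 5% CO2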
Method: as §1, §2
(§12) A549, T47D, SK-OV-3, MKN45, SK-Hep-1, HT-29, Capan-1, 786-O and LNCaP cell line, for compounds and vehicle groups, the seeding density of cell lines is 3000 cells/80 µL per well. For blank groups, add 100 µL medium. For PBS groups, add 100 µL PBS.
as §4, §5, §6, §7, §8, §9, §10, §11
6) Read plates in Envision.

[7] = system: breast cancer line T47D cells; test: CTG (CellTiter-Glo) cell viability assay, 6×6 combo matrix, 72 h, T47D; conditions: Homo sapiens;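 also: luminescence read-out after 72 h at 37 °C under 5% CO2, with medium-only wells as blanks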
[8] = system: colorectal cancer line HT29 cells; test: CTG (CellTiter-Glo) cell viability assay, 6×6 combo matrix, 72 h, HT29; conditions: for Relatively Cell inhibition of vehicle control(%): HT29;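 as to all read-outs here: cells exposed to compounds for 72 hours at 37 °C under 5% CO2, then viability read as luminescence after adding CellTiter-Glo Reagent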
Method: as §1, §2, §3, §4, §5, §6, §7, §8, §9, §10, §11
6) Read plates in Envision.

[9] = system: lung adenocarcinoma line A549 cells; test: CTG (CellTiter-Glo) cell viability assay, 6×6 combo matrix, 72 h, A549; conditions: for Relatively Cell inhibition of vehicle control(%): A549;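 as to all read-outs here: luminescent ATP readout with CellTiter-Glo after compound exposure, used to assess growth inhibition and combination synergy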
[10] = system: glioblastoma line U87MG cells; test: CTG (CellTiter-Glo) cell viability assay, 6×6 combo matrix, 72 h, U87MG; conditions: Homo sapiens, U-87 MG;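 also: U87MG cells seeded at 2000 per well, exposed 72 h, viability read by CellTiter-Glo luminescence, inhibition expressed relative to vehicle-treated wells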
Method: as §1, §2
U87MG cell lines, for compounds and vehicle groups, the seeding density of cell lines is 2000 cells/80 µL per well. For blank groups, add 100 µL medium. For PBS groups, add 100 µL PBS.
as §4, §5, §6, §7, §8, §9, §10, §11
6) Read plates in Envision.

[11] = system: prostate adenocarcinoma line LNCap cells; test: CTG (CellTiter-Glo) cell viability assay, 6×6 combo matrix, 72 h, LNCaP; conditions: Homo sapiens, LNCaP;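 also: luminescence signal read after adding CellTiter-Glo reagent, with cells exposed to compounds for 72 h at 37 °C under 5% CO2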
[12] = system: gastric cancer line MKN45 cells; test: CTG (CellTiter-Glo) cell viability assay, 6×6 combo matrix, 72 h, MKN45;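 also: MKN45 cell viability read as CellTiter-Glo luminescence after 72 h culture at 37 °C under 5% CO2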
Method: as §1, §2, §12, §4, §5, §6, §7, §8, §9, §10, §11
6) Read plates in Envision.

[13] = system: kidney cancer line 786-O cells; test: CTG (CellTiter-Glo) cell viability assay, 6×6 combo matrix, 72 h, 786-O; conditions: for Relatively Cell inhibition of vehicle control(%): 786-O;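 as to all read-outs here: luminescence read-out after adding CellTiter-Glo reagent, with cells incubated at 37 °C under 5% CO2 during compound exposure, part of a ten cell line synergy study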
[14] = system: Liver cancer line SK-HEP-1 cells; test: CTG (CellTiter-Glo) cell viability assay, 6×6 combo matrix, 72 h, SK-Hep-1; conditions: Homo sapiens;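 also: luminescent signal read after 72 h compound exposure at 37 °C under 5% CO2, with medium-only wells serving as blank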
Method: as §1, §2, §3, §4, §5, §6, §7, §8, §9, §10, §11
6) Read plates in Envision.

[15] = Homo sapiens, HT-29, read-out: Relatively Cell inhibition of vehicle control(%)
[16] = Homo sapiens, A549, read-out: Relatively Cell inhibition of vehicle control(%)
[17] = read-out: Relatively Cell inhibition of vehicle control(%), topotecan 16 nM only (myricetin plate)
[18] = read-out: Relatively Cell inhibition of vehicle control(%), topotecan 80 nM only (myricetin plate)
[19] = read-out: Relatively Cell inhibition of vehicle control(%), topotecan 400 nM only (myricetin plate)
[20] = read-out: Relatively Cell inhibition of vehicle control(%), topotecan 2000 nM only (myricetin plate)
[21] = read-out: Relatively Cell inhibition of vehicle control(%), topotecan 10000 nM only (myricetin plate)
[22] = Homo sapiens, 786-0, read-out: Relatively Cell inhibition of vehicle control

`CC[C@@]1(O)C(=O)OCc2c1cc1n(c2=O)Cc2cc3c(CN(C)C)c(O)ccc3nc2-1` [topotecan] showed an inhibition at […] ([1]; Homo sapiens, CAPAN-1, topotecan 16 nM only, read-out: Relatively Cell inhibition of vehicle control) of 21%, an inhibition at 0.08 µM ([1]; Homo sapiens, CAPAN-1, topotecan 80 nM only, read-out: Relatively Cell inhibition of vehicle control) of 53.9% and an inhibition at 0.4 µM ([1]; Homo sapiens, CAPAN-1, topotecan 400 nM only, read-out: Relatively Cell inhibition of vehicle control) of 74.3%. The inhibition at 2 µM ([1]; Homo sapiens, CAPAN-1, topotecan 2000 nM only, read-out: Relatively Cell inhibition of vehicle control) was 88.4%, the inhibition at 10 µM ([1]; Homo sapiens, CAPAN-1, topotecan 10000 nM only, read-out: Relatively Cell inhibition of vehicle control) was 78.1% and the “Relatively Cell inhibition of vehicle control(%)” value ([1]; Top 16 nM only) was 13.17%. For the same compound, the “Relatively Cell inhibition of vehicle control(%)” value ([1]; Top 80 nM only) was 54.35%, the “Relatively Cell inhibition of vehicle control(%)” value ([1]; Top 400 nM only) was 74.56% and the “Relatively Cell inhibition of vehicle control(%)” value ([1]; Top 2000 nM only) was 88.92%. For the same compound, the “Relatively Cell inhibition of vehicle control(%)” value ([1]; Top 10000 nM only) was 81.26%, the inhibition [2] was 2.49% and the inhibition [3] was 15.4%. For the same compound, the inhibition [4] was 2.61%, the inhibition [5] was -0.38% and the inhibition [6] was 23%. It also gave an inhibition at […] ([7]; read-out: Relatively Cell inhibition of vehicle control(%), T47D, 16 nM topotecan only (myricetin 0)) of 12.5%, an inhibition at 0.08 µM ([7]; read-out: Relatively Cell inhibition of vehicle control(%), T47D, 80 nM topotecan only (LB-1 0)) of 29.6% and an inhibition at 0.08 µM ([7]; read-out: Relatively Cell inhibition of vehicle control(%), T47D, 80 nM topotecan only (myricetin 0)) of 36.9%. It also gave an inhibition at 0.4 µM ([7]; read-out: Relatively Cell inhibition of vehicle control(%), T47D, 400 nM topotecan only (LB-1 0)) of 45.7%, an inhibition at 0.4 µM ([7]; read-out: Relatively Cell inhibition of vehicle control(%), T47D, 400 nM topotecan only (myricetin 0)) of 53.9% and an inhibition at 2 µM ([7]; read-out: Relatively Cell inhibition of vehicle control(%), T47D, 2000 nM topotecan only (LB-1 0)) of 58.3%. For the same compound, the inhibition at 2 µM ([7]; read-out: Relatively Cell inhibition of vehicle control(%), T47D, 2000 nM topotecan only (myricetin 0)) was 62.7%, the inhibition at 10 µM ([7]; read-out: Relatively Cell inhibition of vehicle control(%), T47D, 10000 nM topotecan only (LB-1 0)) was 57.7% and the inhibition at 10 µM ([7]; read-out: Relatively Cell inhibition of vehicle control(%), T47D, 10000 nM topotecan only (myricetin 0)) was 61.9%. The inhibition at 0.08 µM [8, 15] was 26.1%, the inhibition at 0.4 µM [8, 15] was 64.8% and the inhibition at 2 µM [8, 15] was 93.2%. For the same compound, the inhibition at 10 µM [8, 15] was 79.4%, the “Relatively Cell inhibition of vehicle control(%)” value ([8]; Top 16 nM only (Myr 0)) was 11.50% and the “Relatively Cell inhibition of vehicle control(%)” value ([8]; Top 80 nM only (Myr 0)) was 21.57%. The “Relatively Cell inhibition of vehicle control(%)” value ([8]; Top 400 nM only (Myr 0)) was 71.12%, the “Relatively Cell inhibition of vehicle control(%)” value ([8]; Top 2000 nM only (Myr 0)) was 94.54% and the “Relatively Cell inhibition of vehicle control(%)” value ([8]; Top 10000 nM only (Myr 0)) was 82.42%. For the same compound, the inhibition at 0.08 µM [9, 16] was 34.9%, the inhibition at 0.4 µM [9, 16] was 60% and the inhibition at 2 µM [9, 16] was 79.7%. The inhibition at 10 µM [9, 16] was 94.4%, the “Relatively Cell inhibition of vehicle control(%)” value ([9]; Top 16 nM only) was -0.68% and the “Relatively Cell inhibition of vehicle control(%)” value ([9]; Top 80 nM only) was 37.94%. For the same compound, the “Relatively Cell inhibition of vehicle control(%)” value ([9]; Top 400 nM only) was 62.21%, the “Relatively Cell inhibition of vehicle control(%)” value ([9]; Top 2000 nM only) was 80.57% and the “Relatively Cell inhibition of vehicle control(%)” value ([9]; Top 10000 nM only) was 93.99%. For the same compound, the inhibition at […] ([10]; read-out: Relatively Cell inhibition of vehicle control(%), topotecan 16 nM only) was 15.6%, the inhibition at […] [10, 17] was 11.4% and the inhibition at 0.08 µM ([10]; read-out: Relatively Cell inhibition of vehicle control(%), topotecan 80 nM only) was 49.3%. It also gave an inhibition at 0.08 µM [10, 18] of 51.6%, an inhibition at 0.4 µM ([10]; read-out: Relatively Cell inhibition of vehicle control(%), topotecan 400 nM only) of 64.1% and an inhibition at 0.4 µM [10, 19] of 66.2%. For the same compound, the inhibition at 2 µM ([10]; read-out: Relatively Cell inhibition of vehicle control(%), topotecan 2000 nM only) was 73.5%, the inhibition at 2 µM [10, 20] was 76.3% and the inhibition at 10 µM ([10]; read-out: Relatively Cell inhibition of vehicle control(%), topotecan 10000 nM only) was 82.1%. For the same compound, the inhibition at 10 µM [10, 21] was 83.4%, the inhibition at […] [11, 17] was 17.6% and the inhibition at 0.08 µM ([11]; read-out: Relatively Cell inhibition of vehicle control(%), topotecan 80 nM only (LB-1 plate)) was 37.8%. The inhibition at 0.08 µM [11, 18] was 40.1%, the inhibition at 0.4 µM ([11]; read-out: Relatively Cell inhibition of vehicle control(%), topotecan 400 nM only (LB-1 plate)) was 55.9% and the inhibition at 0.4 µM [11, 19] was 60%. The inhibition at 2 µM ([11]; read-out: Relatively Cell inhibition of vehicle control(%), topotecan 2000 nM only (LB-1 plate)) was 82.1%, the inhibition at 2 µM [11, 20] was 83.6% and the inhibition at 10 µM ([11]; read-out: Relatively Cell inhibition of vehicle control(%), topotecan 10000 nM only (LB-1 plate)) was 84.8%. The inhibition at 10 µM [11, 21] was 87.5%, the “Relatively Cell inhibition of vehicle control(%)” value ([12]; Top 16 nM only (Myr 0)) was 27.49% and the “Relatively Cell inhibition of vehicle control(%)” value ([12]; Top 80 nM only (LB-1 0)) was 48.98%. The “Relatively Cell inhibition of vehicle control(%)” value ([12]; Top 80 nM only (Myr 0)) was 53.47%, the “Relatively Cell inhibition of vehicle control(%)” value ([12]; Top 400 nM only (LB-1 0)) was 84.58% and the “Relatively Cell inhibition of vehicle control(%)” value ([12]; Top 400 nM only (Myr 0)) was 85.99%. The “Relatively Cell inhibition of vehicle control(%)” value ([12]; Top 2000 nM only (LB-1 0)) was 91.55%, the “Relatively Cell inhibition of vehicle control(%)” value ([12]; Top 2000 nM only (Myr 0)) was 92.29% and the “Relatively Cell inhibition of vehicle control(%)” value ([12]; Top 10000 nM only (LB-1 0)) was 89.36%. The “Relatively Cell inhibition of vehicle control(%)” value ([12]; Top 10000 nM only (Myr 0)) was 91.07%, the inhibition at 0.08 µM [13, 22] was 68.1% and the inhibition at 0.4 µM [13, 22] was 82.5%. The inhibition at 2 µM [13, 22] was 91.7%, the inhibition at 10 µM [13, 22] was 93.9% and the “Relatively Cell inhibition of vehicle control(%)” value ([13]; Top 80 nM only (LB-1 0)) was 68.14%. The “Relatively Cell inhibition of vehicle control(%)” value ([13]; Top 400 nM only (LB-1 0)) was 83.15%, the “Relatively Cell inhibition of vehicle control(%)” value ([13]; Top 2000 nM only (LB-1 0)) was 91.65% and the “Relatively Cell inhibition of vehicle control(%)” value ([13]; Top 10000 nM only (LB-1 0)) was 93.59%. The inhibition at […] ([14]; SK-HEP1, read-out: Relatively Cell inhibition of vehicle control, topotecan 16 nM only (myricetin table)) was -4.24%, the inhibition at 0.08 µM ([14]; SK-HEP1, read-out: Relatively Cell inhibition of vehicle control, topotecan 80 nM only (LB-1 table)) was 9.52% and the inhibition at 0.08 µM ([14]; SK-HEP1, read-out: Relatively Cell inhibition of vehicle control, topotecan 80 nM only (myricetin table)) was 16%. The inhibition at 0.4 µM ([14]; SK-HEP1, read-out: Relatively Cell inhibition of vehicle control, topotecan 400 nM only (LB-1 table)) was 35.4%, the inhibition at 0.4 µM ([14]; SK-HEP1, read-out: Relatively Cell inhibition of vehicle control, topotecan 400 nM only (myricetin table)) was 37.7% and the inhibition at 2 µM ([14]; SK-HEP1, read-out: Relatively Cell inhibition of vehicle control, topotecan 2000 nM only (LB-1 table)) was 70.3%. It also gave an inhibition at 2 µM ([14]; SK-HEP1, read-out: Relatively Cell inhibition of vehicle control, topotecan 2000 nM only (myricetin table)) of 74.2%, an inhibition at 10 µM ([14]; SK-HEP1, read-out: Relatively Cell inhibition of vehicle control, topotecan 10000 nM only (LB-1 table)) of 98.6% and an inhibition at 10 µM ([14]; SK-HEP1, read-out: Relatively Cell inhibition of vehicle control, topotecan 10000 nM only (myricetin table)) of 99.1%. It also gave an inhibition at 1 µM ([14]; SK-HEP1, read-out: inhibition rate, 1000 nM topotecan only (footnote of the LB-1 table)) of 98.6%.
